From patent US9409905B2, “Antibacterial compounds and methods for use” (PTC THERAPEUTICS, INC., priority 2011, dated 2016) come the findings set out here.

In brackets after ≈: the same amount, converted by molar mass. Bounds are passed on as bounds.

Test [1] relates to Neisseria meningitidis (N. meningitidis) 13090. Put plainly: Antibacterial activity, MIC (Table 8). The format is cell-based. A digest of the protocol: (§1)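 Activity was determined by microbroth dilution. MIC, in μg/mL, is the lowest drug concentration that prevents macroscopically visible growth under the test conditions.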
In the next test the test system is E. coli ELZ4000. The test is described as follows: Antibacterial activity, MIC, multi-drug resistant clinical isolate (Table 3). The format is cell-based. To be noted: Escherichia coli, ELZ4000, read-out: MIC ELZ4000. A digest of the protocol:
(§2)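 Broth microdilution assay; MIC reported in μg/mL as the lowest drug concentration preventing macroscopically visible growth under test conditions.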

The test system of a further test is E. coli ELZ4251. The test is described as above. Type of test: cell-based. To be noted: Escherichia coli. A digest of the protocol:
as §2

In test [2] the test system is Moraxella catarrhalis (M. catarrhalis) 25238. Put plainly: Antibacterial activity, MIC (Table 7). Type of test: cell-based. The procedure, abridged: as §1
Test [3] concerns Escherichia coli (E. coli) BAS849. Put plainly: Antibacterial activity, microbroth dilution MIC (Table 1). Type of test: cell-based. To be noted: microbroth dilution, super sensitive Gram-negative E. coli BAS849, read-out: MIC, BAS849. A digest of the protocol: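 Each strain is exposed to test compound in a microbroth dilution series; visible growth is scored macroscopically, and the lowest growth-free concentration is recorded as MIC in μg/mL.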
Background: In broth dilution the organism is exposed to a series of concentrations in liquid medium.

The test system of test [4] is Staphylococcus aureus (S. aureus) 29213. The test is described as above. The format is cell-based. Particulars: microbroth dilution, Gram-positive S. aureus 29213, read-out: MIC, 29213. A digest of the protocol:
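Read-out: visual absence of growth. The lowest concentration meeting this gives the MIC, expressed in μg/mL, with microbroth dilution as the method.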

A further test deals with E. coli 25922. The description is as above. Type of test: cell-based, Escherichia coli. To be noted: Escherichia coli; microbroth dilution; control Gram-negative E. coli 25922 strain; read-out: MIC, 25922. The procedure, abridged:
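Growth inhibition by microbroth dilution. MIC = lowest μg/mL with no visible growth. Strain 25922 is the control Gram-negative; BAS849 is hypersensitive.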

Test [5] relates to Klebsiella pneumoniae (K. pneumoniae) 35657. The test is described as follows: Antibacterial activity, MIC (Table 4). The format is cell-based. Particulars: K. pneumoniae 35657, read-out: MIC, 35657. The procedure, abridged: (§3)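 The resistant panel comprises multi-drug resistant clinical isolates. All strains were tested by microbroth dilution, with the MIC in μg/mL taken as the lowest concentration that prevented macroscopically visible growth.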

The subject of test [6] is Acinetobacter baumannii (A. baumannii) BAA747. The test is described as follows: Antibacterial activity, MIC (Table 4). The format is cell-based. To be noted: A. baumannii BAA747, read-out: MIC, BAA747. A digest of the protocol: as §3
Another test concerns K. pneumoniae MXX1232. The test is described as follows: Antibacterial activity, MIC, resistant strain (Table 4). Particulars: Klebsiella pneumoniae, MXX1232; resistant K. pneumoniae MMX1232, multi-drug resistant clinical isolate; read-out: MIC, MMX1232. The format is cell-based. The procedure, abridged: as §3
The subject of a further test is A. baumannii MXX2240. The test is described as above. Type of test: cell-based. Particulars: Acinetobacter baumannii, MXX2240; resistant A. baumannii MMX2240, multi-drug resistant clinical isolate; read-out: MIC, MMX2240. A digest of the protocol:
as §3

For a further test, the system named is E. coli LZ3111. The test is described as follows: Antibacterial activity, MIC, quinolone resistant strain (Table 2). Particulars: Escherichia coli, LZ3111, read-out: MIC LZ3111. The format is cell-based. The procedure, abridged:
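Microbroth dilution method; MIC (μg/mL) is the lowest drug concentration preventing macroscopically visible growth under test conditions.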

Test [7] has as its system Haemophilus influenzae (H. influenzae) 49247. Put plainly: Antibacterial activity, MIC (Table 6). Type of test: cell-based. The procedure, abridged: as §1
The subject of test [8] is Pseudomonas aeruginosa (P. aeruginosa) 27853. Put plainly: Antibacterial activity, MIC (Table 5). The format is cell-based. To be noted: P. aeruginosa 27853, read-out: MIC, 27853. The procedure, abridged:
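Activity was measured by microbroth dilution. The MIC, in μg/mL, is the lowest drug concentration that prevents macroscopically visible growth under the test conditions.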

As to `CCc1c(-c2ccc3c(c2)cc(CN2CCC(NC)CC2)n3C)[nH]c(=O)c(C(=O)O)c1O` [Cpd 256, 5-ethyl-4-hydroxy-6-(1-methyl-2-((4-(methylamino)piperidin-1-yl)methyl)-1H-indol-5-yl)-2-oxo-1,2-dihydropyridine-3-carboxylic acid], the MIC in test [1] was 1 to 3.5 µg/mL (≈ 2.28 to 7.98 µM); in the test with E. coli ELZ4000, 12.5 to 150 µg/mL (≈ 28.5 to 342 µM); with E. coli ELZ4251, 12.5 to 150 µg/mL (≈ 28.5 to 342 µM); in [2], 1 to 3.5 µg/mL (≈ 2.28 to 7.98 µM); in test [3] it was less than 1 µg/mL; in test [4], 3.5 to 12.5 µg/mL (≈ 7.98 to 28.5 µM). In addition, the MIC in the test on E. coli 25922 was in the range of 1 to 3.5 µg/mL (≈ 2.28 to 7.98 µM); in test [5], 1 to 3.5 µg/mL (≈ 2.28 to 7.98 µM); in [6], 12.5 to 150 µg/mL (≈ 28.5 to 342 µM); in the test on K. pneumoniae MXX1232, 12.5 to 150 µg/mL (≈ 28.5 to 342 µM); with A. baumannii MXX2240 it was 12.5 to 150 µg/mL (≈ 28.5 to 342 µM); with E. coli LZ3111, 1 to 3.5 µg/mL (≈ 2.28 to 7.98 µM). The figures for the MIC in [7] and in [8] were 1 to 3.5 µg/mL (≈ 2.28 to 7.98 µM) and 3.5 to 12.5 µg/mL (≈ 7.98 to 28.5 µM), respectively.
In the case of `CCc1c(-c2ccc3c(c2)cc(CN2CCC[C@H](NC)C2)n3C)[nH]c(=O)c(C(=O)O)c1O` [Cpd 257, (S)-5-ethyl-4-hydroxy-6-(1-methyl-2-((3-(methylamino)piperidin-1-yl)methyl)-1H-indol-5-yl)-2-oxo-1,2-dihydropyridine-3-carboxylic acid], the MIC was 1 to 3.5 µg/mL (≈ 2.28 to 7.98 µM) in test [1]; 12.5 to 150 µg/mL (≈ 28.5 to 342 µM) in the test with E. coli ELZ4000; 12.5 to 150 µg/mL (≈ 28.5 to 342 µM) against E. coli ELZ4251; 3.5 to 12.5 µg/mL (≈ 7.98 to 28.5 µM) in [2]; less than 1 µg/mL in [3]; 12.5 to 150 µg/mL (≈ 28.5 to 342 µM) in test [4]. Besides, the MIC in the test on E. coli 25922 was 3.5 to 12.5 µg/mL (≈ 7.98 to 28.5 µM); in [5], 3.5 to 12.5 µg/mL (≈ 7.98 to 28.5 µM); in test [6], 12.5 to 150 µg/mL (≈ 28.5 to 342 µM); in the test on K. pneumoniae MXX1232, 12.5 to 150 µg/mL (≈ 28.5 to 342 µM); in the test on A. baumannii MXX2240, 12.5 to 150 µg/mL (≈ 28.5 to 342 µM); in the test with E. coli LZ3111, 3.5 to 12.5 µg/mL (≈ 7.98 to 28.5 µM). The MIC in [7] fell in the range of 3.5 to 12.5 µg/mL (≈ 7.98 to 28.5 µM); in test [8], 12.5 to 150 µg/mL (≈ 28.5 to 342 µM).
As to `CCc1c(-c2ccc3c(c2)cc(CNC2(C)CC2)n3C)[nH]c(=O)c(C(=O)O)c1O` [Cpd 275, 5-ethyl-4-hydroxy-6-(1-methyl-2-((1-methylcyclopropylamino)methyl)-1H-indol-5-yl)-2-oxo-1,2-dihydropyridine-3-carboxylic acid], the MIC in [1] is less than 1 µg/mL; in the test on E. coli ELZ4000, 1 to 3.5 µg/mL (≈ 2.53 to 8.85 µM); against E. coli ELZ4251, 1 to 3.5 µg/mL (≈ 2.53 to 8.85 µM); in test [2] it was less than 1 µg/mL; in [3], less than 1 µg/mL; in test [4], 3.5 to 12.5 µg/mL (≈ 8.85 to 31.6 µM). The MIC was less than 1 µg/mL in the test with E. coli 25922; 1 to 3.5 µg/mL (≈ 2.53 to 8.85 µM) in test [5]; less than 1 µg/mL in test [6]; 12.5 to 150 µg/mL (≈ 31.6 to 379 µM) in the test on K. pneumoniae MXX1232; less than 1 µg/mL in the test with A. baumannii MXX2240; less than 1 µg/mL in the test with E. coli LZ3111. In addition, the results for the MIC in [7] and in test [8] were less than 1 µg/mL and 3.5 to 12.5 µg/mL (≈ 8.85 to 31.6 µM), respectively.
As for `CCc1c(-c2ccc3c(c2)cc(CN2C[C@H]4CC[C@@H](N)[C@H]4C2)n3C)[nH]c(=O)c(C(=O)O)c1O` [Cpd 276, 6-(2-(((3aR,4R,6aS)-4-aminohexahydrocyclopenta[c]pyrrol-2(1H)-yl)methyl)-1-methyl-1H-indol-5-yl)-5-ethyl-4-hydroxy-2-oxo-1,2-dihydropyridine-3-carboxylic acid], the MIC was less than 1 µg/mL in [1]; 12.5 to 150 µg/mL (≈ 27.7 to 333 µM) in the test with E. coli ELZ4000; 12.5 to 150 µg/mL (≈ 27.7 to 333 µM) against E. coli ELZ4251; 1 to 3.5 µg/mL (≈ 2.22 to 7.77 µM) in test [2]; less than 1 µg/mL in test [3]; 3.5 to 12.5 µg/mL (≈ 7.77 to 27.7 µM) in [4]. Also, the MIC in the test with E. coli 25922 fell in the range of 1 to 3.5 µg/mL (≈ 2.22 to 7.77 µM); in [5], 1 to 3.5 µg/mL (≈ 2.22 to 7.77 µM); in test [6], 12.5 to 150 µg/mL (≈ 27.7 to 333 µM); with K. pneumoniae MXX1232, 12.5 to 150 µg/mL (≈ 27.7 to 333 µM); in the test on A. baumannii MXX2240, 12.5 to 150 µg/mL (≈ 27.7 to 333 µM); in the test on E. coli LZ3111, 3.5 to 12.5 µg/mL (≈ 7.77 to 27.7 µM). For the same molecule, the results for the MIC in test [7] and in test [8] were 1 to 3.5 µg/mL (≈ 2.22 to 7.77 µM) and 12.5 to 150 µg/mL (≈ 27.7 to 333 µM), respectively.
In the case of `C#CCNCc1cc2cc(-c3[nH]c(=O)c(C(=O)O)c(O)c3CC)ccc2n1C.Cl` [Cpd 277, 5-ethyl-4-hydroxy-6-(1-methyl-2-((prop-2-ynylamino)methyl)-1H-indol-5-yl)-2-oxo-1,2-dihydropyridine-3-carboxylic acid hydrochloride], the MIC is less than 1 µg/mL in [1]; 12.5 to 150 µg/mL with E. coli ELZ4000; 3.5 to 12.5 µg/mL against E. coli ELZ4251; less than 1 µg/mL in test [2]; less than 1 µg/mL in test [3]; 1 to 3.5 µg/mL in test [4]. Besides, the MIC in the test with E. coli 25922 is less than 1 µg/mL; in [5], 1 to 3.5 µg/mL; in test [6] it was 1 to 3.5 µg/mL; in the test with K. pneumoniae MXX1232, 12.5 to 150 µg/mL; in the test on A. baumannii MXX2240, 12.5 to 150 µg/mL; in the test on E. coli LZ3111 it was 1 to 3.5 µg/mL. Also, the results for the MIC in [7] and in [8] were less than 1 µg/mL and 12.5 to 150 µg/mL, respectively.
